Experimental data reported in PubChem BioAssay AID248 (DTP/NCI, 2004).
“And” between values parts separate entries of the source, which are not always exact repeats. Identical values can stand only once. Inconclusive results and toxic doses are left out.

System: L1210 leukemia ip in BDF1 mice, survival T/C
Experiment: NCI In Vivo Anticancer Drug Screen. Data for tumor model L1210 Leukemia (intraperitoneal) in B6D2F1 (BDF1) mice
Settings: endpoint: mean survival time, higher = longer survival
Method in brief: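 Transplantable tumor model; survival measured in treated vs vehicle control mice. Value = treated/control.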

[1] = dose: 100.0 mg/kg/injection, schedule: Q01DX001 (ip), vehicle: Klucel (hydroxypropylcellulose) (HPC)
[2] = dose: 100.0 mg/kg/injection, schedule: Q04DX003 (ip), vehicle: Klucel (hydroxypropylcellulose) (HPC)
[3] = dose: 200.0 mg/kg/injection, schedule: Q01DX001 (ip), vehicle: Klucel (hydroxypropylcellulose) (HPC)
[4] = dose: 200.0 mg/kg/injection, schedule: Q04DX003 (ip), vehicle: Klucel (hydroxypropylcellulose) (HPC)
[5] = dose: 400.0 mg/kg/injection, schedule: Q01DX001 (ip), vehicle: Klucel (hydroxypropylcellulose) (HPC)
[6] = dose: 400.0 mg/kg/injection, schedule: Q04DX003 (ip), vehicle: Klucel (hydroxypropylcellulose) (HPC)

Structure (SMILES): O=C(Nc1ccc(C2=NCCN2)cc1)c1ccc(C(=O)Nc2ccc(C3=NCCN3)cc2)c(NC(=O)c2ccc(C(=O)Nc3cc(C(=O)Nc4ccc(C5=NCCN5)cc4)ccc3C(=O)Nc3ccc(C4=NCCN4)cc3)cc2)c1
- T/C (dose: 2.5 mg/kg/injection, schedule: Q01DX Z (ip), vehicle: methylcellulose (MC)): 120 % of control
- T/C (dose: 3.1 mg/kg/injection, schedule: Q01DX Z (ip), vehicle: carboxymethylcellulose (CMC)): 104 % of control
- T/C (dose: 6.2 mg/kg/injection, schedule: Q01DX Z (ip), vehicle: carboxymethylcellulose (CMC)): 107 % of control
- T/C (dose: 6.25 mg/kg/injection, schedule: Q#A X Z (ip), vehicle: carboxymethylcellulose (CMC)): 108 % of control
- T/C (dose: 10.0 mg/kg/injection, schedule: Q01DX Z (ip), vehicle: methylcellulose (MC)): 157 % of control
- T/C (dose: 12.5 mg/kg/injection, schedule: Q01DX Z (ip), vehicle: carboxymethylcellulose (CMC)): 119 % of control
- T/C (dose: 12.5 mg/kg/injection, schedule: Q01DX Z (sc), vehicle: carboxymethylcellulose (CMC)): 98 % of control
- T/C (dose: 12.5 mg/kg/injection, schedule: Q#A X Z (ip), vehicle: carboxymethylcellulose (CMC)): 192 % of control
- T/C (dose: 22.0 mg/kg/injection, schedule: Q01DX015 (ip), vehicle: carboxymethylcellulose (CMC)): 116 % of control
- T/C (dose: 25.0 mg/kg/injection, schedule: Q01DX004 (im), vehicle: olive oil, sesame oil, peanut oil): 97 % of control
- T/C (dose: 25.0 mg/kg/injection, schedule: Q01DX Z (ip), vehicle: carboxymethylcellulose (CMC)): 175 % of control
- T/C (dose: 25.0 mg/kg/injection, schedule: Q01DX Z (sc), vehicle: carboxymethylcellulose (CMC)): 122 % of control
- T/C (dose: 25.0 mg/kg/injection, schedule: Q#A X Z (ip), vehicle: carboxymethylcellulose (CMC)): 289 % of control
- T/C (dose: 33.0 mg/kg/injection, schedule: Q01DX015 (ip), vehicle: carboxymethylcellulose (CMC)): 106 % of control
- T/C (dose: 50.0 mg/kg/injection, schedule: Q01DX004 (im), vehicle: olive oil, sesame oil, peanut oil): 95 % of control
- T/C (dose: 50.0 mg/kg/injection, schedule: Q01DX015 (ip), vehicle: carboxymethylcellulose (CMC)): 110 % of control
- T/C (dose: 50.0 mg/kg/injection, schedule: Q01DX Z (ip), vehicle: carboxymethylcellulose (CMC)): 302 % of control
- T/C (dose: 50.0 mg/kg/injection, schedule: Q01DX Z (oral), vehicle: carboxymethylcellulose (CMC)): 95 % of control
- T/C (dose: 50.0 mg/kg/injection, schedule: Q01DX Z (sc), vehicle: carboxymethylcellulose (CMC)): 201 % of control
- T/C (dose: 50.0 mg/kg/injection, schedule: Q#A X Z (ip), vehicle: carboxymethylcellulose (CMC)): 194 % of control
- T/C (dose: 60.0 mg/kg/injection, schedule: Q01DX Z (ip), vehicle: methylcellulose (MC)): 158 % of control and 359 % of control
- T/C (dose: 62.5 mg/kg/injection, schedule: Q## X010 (oral), vehicle: saline): 98 % of control
- T/C (dose: 75.0 mg/kg/injection, schedule: Q03DX Z (ip), vehicle: carboxymethylcellulose (CMC)): 206 % of control
- T/C (dose: 100.0 mg/kg/injection, schedule: Q01DX004 (im), vehicle: olive oil, sesame oil, peanut oil): 95 % of control
- T/C (dose: 100.0 mg/kg/injection, schedule: Q01DX Z (ip), vehicle: carboxymethylcellulose (CMC)): 195 % of control
- T/C (dose: 100.0 mg/kg/injection, schedule: Q01DX Z (oral), vehicle: carboxymethylcellulose (CMC)): 93 % of control
- T/C (dose: 100.0 mg/kg/injection, schedule: Q01DX Z (sc), vehicle: carboxymethylcellulose (CMC)): 208 % of control
- T/C (dose: 112.5 mg/kg/injection, schedule: Q01DX015 (ip), vehicle: carboxymethylcellulose (CMC)): 169 % of control
- T/C (dose: 120.0 mg/kg/injection, schedule: Q01DX Z (ip), vehicle: methylcellulose (MC)): 314 % of control
- T/C (dose: 150.0 mg/kg/injection, schedule: Q03DX Z (ip), vehicle: carboxymethylcellulose (CMC)): 284 % of control
- T/C (dose: 175.0 mg/kg/injection, schedule: Q07DX Z (ip), vehicle: carboxymethylcellulose (CMC)): 293 % of control
- T/C (dose: 192.0 mg/kg/injection, schedule: Q01DX001 (ip), vehicle: carboxymethylcellulose (CMC)): 97 % of control
- T/C (dose: 192.0 mg/kg/injection, schedule: Q01DX001 (ip), vehicle: other): 100 % of control
- T/C (dose: 200.0 mg/kg/injection, schedule: Q01DX004 (im), vehicle: olive oil, sesame oil, peanut oil): 98 % of control
- T/C (dose: 200.0 mg/kg/injection, schedule: Q01DX Z (oral), vehicle: carboxymethylcellulose (CMC)): 97 % of control
- T/C (dose: 200.0 mg/kg/injection, schedule: Q01DX Z (sc), vehicle: carboxymethylcellulose (CMC)): 227 % of control
- T/C (dose: 240.0 mg/kg/injection, schedule: Q01DX Z (ip), vehicle: methylcellulose (MC)): 210 % of control
- T/C (dose: 250.0 mg/kg/injection, schedule: Q## X010 (oral), vehicle: saline): 101 % of control
- T/C (dose: 281.0 mg/kg/injection, schedule: Q01DX001 (ip), vehicle: carboxymethylcellulose (CMC)): 97 % of control
- T/C (dose: 281.0 mg/kg/injection, schedule: Q01DX001 (ip), vehicle: other): 103 % of control
- T/C (dose: 300.0 mg/kg/injection, schedule: Q03DX Z (ip), vehicle: carboxymethylcellulose (CMC)): 190 % of control
- T/C (dose: 350.0 mg/kg/injection, schedule: Q07DX Z (ip), vehicle: carboxymethylcellulose (CMC)): 278 % of control
- T/C (dose: 400.0 mg/kg/injection, schedule: Q01DX Z (oral), vehicle: carboxymethylcellulose (CMC)): 104 % of control
- T/C (dose: 422.0 mg/kg/injection, schedule: Q01DX001 (ip), vehicle: carboxymethylcellulose (CMC)): 95 % of control
- T/C (dose: 422.0 mg/kg/injection, schedule: Q01DX001 (ip), vehicle: other): 106 % of control
- T/C (dose: 500.0 mg/kg/injection, schedule: Q## X010 (oral), vehicle: saline): 104 % of control
- T/C (dose: 640.0 mg/kg/injection, schedule: Q01DX001 (ip), vehicle: carboxymethylcellulose (CMC)): 104 % of control
- T/C (dose: 640.0 mg/kg/injection, schedule: Q01DX001 (ip), vehicle: other): 104 % of control
- T/C (dose: 700.0 mg/kg/injection, schedule: Q07DX Z (ip), vehicle: carboxymethylcellulose (CMC)): 185 % of control
- T/C (dose: 800.0 mg/kg/injection, schedule: Q01DX Z (oral), vehicle: carboxymethylcellulose (CMC)): 89 % of control
- T/C (dose: 960.0 mg/kg/injection, schedule: Q01DX001 (ip), vehicle: carboxymethylcellulose (CMC)): 106 % of control and 120 % of control
- T/C (dose: 1440.0 mg/kg/injection, schedule: Q01DX001 (ip), vehicle: carboxymethylcellulose (CMC)): 116 % of control
- T/C (dose: 1440.0 mg/kg/injection, schedule: Q01DX001 (ip), vehicle: other): 120 % of control
- T/C (dose: 2160.0 mg/kg/injection, schedule: Q01DX001 (ip), vehicle: carboxymethylcellulose (CMC)): 121 % of control
- T/C (dose: 3240.0 mg/kg/injection, schedule: Q01DX001 (ip), vehicle: carboxymethylcellulose (CMC)): 123 % of control
- T/C (dose: 3240.0 mg/kg/injection, schedule: Q01DX001 (ip), vehicle: other): 191 % of control

Structure (SMILES): CCCCCCCCCCCCCCCCCCNC(=S)Nc1ccccc1
- T/C (dose: 100.0 mg/kg/injection, schedule: Q04DX003 (ip), vehicle: saline with Tween-80): 95 % of control
- T/C (dose: 200.0 mg/kg/injection, schedule: Q04DX003 (ip), vehicle: saline with Tween-80): 90 % of control
- T/C (dose: 400.0 mg/kg/injection, schedule: Q04DX003 (ip), vehicle: saline with Tween-80): 92 % of control

Structure (SMILES): O=c1[nH]cnc2c1nnn2C1CC(CO)C(O)C1O (stereo not drawn)
- T/C (dose: 50.0 mg/kg/injection, schedule: Q04DX003 (ip), vehicle: saline): 92 % of control
- T/C (dose: 100.0 mg/kg/injection, schedule: Q04DX003 (ip), vehicle: saline): 92 % of control
- T/C (dose: 200.0 mg/kg/injection, schedule: Q04DX003 (ip), vehicle: saline): 96 % of control

Structure (SMILES): O=C(NC(=O)C(Cl)Cl)Nc1ccc2c(c1)-c1ccccc1C2
- T/C [1]: 87 % of control
- T/C (dose: 100.0 mg/kg/injection, schedule: Q01DX009 (ip), vehicle: Klucel (hydroxypropylcellulose) (HPC)): 96 % of control
- T/C [2]: 92 % of control
- T/C [3]: 90 % of control
- T/C (dose: 200.0 mg/kg/injection, schedule: Q01DX009 (ip), vehicle: Klucel (hydroxypropylcellulose) (HPC)): 94 % of control
- T/C [4]: 92 % of control
- T/C [5]: 92 % of control
- T/C (dose: 400.0 mg/kg/injection, schedule: Q01DX009 (ip), vehicle: Klucel (hydroxypropylcellulose) (HPC)): 100 % of control
- T/C [6]: 88 % of control

Structure (SMILES): O=C(/C=C\C(Cl)(Cl)Cl)c1ccccc1
- T/C [1]: 93 % of control
- T/C [3]: 93 % of control
- T/C [5]: 97 % of control

Structure (SMILES): O=S(=O)(Nc1ccc2ccccc2c1)c1cccc2ccccc12
- T/C [2]: 101 % of control
- T/C [4]: 93 % of control
- T/C [6]: 101 % of control

Structure (SMILES): COc1cc2c(cc1O)C(=O)CCCC2
- T/C (dose: 100.0 mg/kg/injection, schedule: Q01DX009 (ip), vehicle: saline sonified): 94 % of control
- T/C [2]: 94 % of control
- T/C (dose: 200.0 mg/kg/injection, schedule: Q01DX009 (ip), vehicle: saline sonified): 103 % of control
- T/C [4]: 92 % of control
- T/C (dose: 400.0 mg/kg/injection, schedule: Q01DX009 (ip), vehicle: saline sonified): 90 % of control
- T/C [6]: 100 % of control
